This data set deals with IL-6. The conditions noted are these: three-component LNP based on the compound, SARS-CoV-2 antigen mRNA, 30 µg intramuscular; compared with four-component LNP of ALC-0315; FIG. 4.

As to `CCCCCCCCC(CCCCCC)C(=O)OCCCCCCN(CCCCO)CCCCCCOC(=O)O[C@H]1CC[C@@]2(C)C(=CC[C@H]3[C@@H]4CC[C@H]([C@H](C)CCCC(C)C)[C@@]4(C)CC[C@@H]32)C1` (stereo partly drawn) [Compound 1], the “expression levels of the systemic inflammatory factor IL-6” value is “significantly reduced”. With `CCCCCCCCC(CCCCCC)C(=O)OCCCCCCN(CCCCCCOC(=O)O[C@H]1CC[C@@]2(C)C(=CC[C@H]3[C@@H]4CC[C@H]([C@H](C)CCCC(C)C)[C@@]4(C)CC[C@@H]32)C1)CCCn1ccnc1` (stereo partly drawn) [Compound 6] the entry was “significantly reduced”. As for `CCCCCCCCC(CCCCCC)C(=O)OCCCCCCN(CCCn1ccnc1)CCOC(=O)O[C@H]1CC[C@@]2(C)C(=CC[C@H]3[C@@H]4CC[C@H]([C@H](C)CCCC(C)C)[C@@]4(C)CC[C@@H]32)C1` (stereo partly drawn) [Compound 11], the “expression levels of the systemic inflammatory factor IL-6” value is listed as “significantly reduced”.

For the origin of these results see patent EP4707289A1, “STEROID-CATIONIC LIPID COMPOUND AND USE THEREOF” (priority 2023, dated 2024).
